Source: patent US8404442B2, “Methods for identification of bone anabolic agents” (New York University, priority 2009, dated 2013)

Assays:
[1] = tested on: iPSCs; settings: refs (7,32); cited from earlier work
[2] = tested on: Sox2-depleted osteoblasts; assay: Rescue of colony forming ability of Sox2-depleted osteoblasts; type: cell-based, mouse; settings: 10 μM SB431542
Method: For colony formation assay, 0.1×10^6 cells were plated per well in a cluster-6 well plate for 24 hours. The next day, the cells were infected with a retrovirus either encoding eGFP (MSCV-eGFP) or CRE (MSCV-CRE-eGFP) at an MOI of 10, in the presence of 8 μg/ml polybrene. Twenty-four (24) hours after infection, fresh medium was added to the plate and the cells were incubated for an additional 48 hours (72 hours total from the start of infection). The infected cells were then trypsinized and re-plated at a density of 1000 cells/well in a cluster-6 well plate. The plated were incubated for 7-10 days. Green colonies were visualized and counted under a fluorescence microscope. Colonies were fixed in 20% methanol for 15 minutes at room temperature, and counted after staining with 0.5% crystal violet in 20% methanol. We have developed a 96-well format, cell-based screen using two Sox2 foxed cell lines (F/F and F/-). […] The CellTiter-Blue® Cell Viability Assay is a fluorescence-based assay for measuring cell viability, and has an excellent Z′ factor^1. […] After one hour of incubation with the reagent, fluorescence was read using a Wallac Plate Reader (Perkinelmer, Waltham, Mass.). Z′ factor and z score for each plate was calculated for each cell line at different cell plating concentrations as described (28, 29). […]

**Q.** What does the source list for `NC(=O)c1ccc(-c2nc(-c3ccc4c(c3)OCO4)c(-c3ccccn3)[nH]2)cc1` [SB431542]?
**A.** bypass of the requirement of Sox2 in reprogramming [1]: bypass the requirement of Sox2 in the reprogramming of iPSCs; rescue of loss of colony forming ability [2]: able to rescue to loss of colony forming ability
